Results: PMC1968811, “Pharmacokinetics in melanoma-bearing mice of 5-dihydroxyboryl-6-propyl-2-thiouracil (BPTU), a candidate compound for boron neutron capture therapy” (British Journal of Cancer, 1994)
Values belong to the molecule of their own block, whether it stands above or below them.

How the values were obtained:
[1] = Boron distribution in blood and normal tissues (skin, muscle, brain, kidneys, liver) of tumour-bearing mice; assay type: in vivo, C57/BL mice
Description: (§1) Br. J. Cancer (1994), 69, 641 647 ? Macmillan Press Ltd., 1994~~~~~~~~~~~~~~~~~~~~~~~~~~~~~~~~~~~~~~~~~~~~~~~~~~~~~~~~~~~~~~~~~~~~~~~~~~~~~~~~~~~~~ Pharmacokinetics in melanoma-bearing- mice of 5-dihydroxyboryl- 6-propyl-2-thiouracil (BPTU), a candidate compound for boron neutron capture therapy R. Verrijkl, I.J.H. Smolders', R. Huiskamp2, P.R. Gavin3,. K.H.I. Philipp2 & A.C. Begg' 'The Netherlands Cancer Institute, Division of Experimental Therapy, Plesmanlaan 121, 1066 CX, Amsterdam, The Netherlands; 2The Netherlands Energy Research Foundation, Division of Radiobiology and Radioecology, PO Box 1, 1755 SG, Petten, The Netherlands; 3Department of Veterinary Clinical Medicine and Surgery and Washington Animal Disease and Diagnostic Laboratory, Washington State University, Pullman, Washington 99164-6610, USA. Summary Blood pharmacokinetics and tissue distribution of 5-dihydroxyboryl-6-propyl-2-thiouracil (BPTU), a boron carrier with postulated melanin-seeking properties for boron neutron capture therapy, were deter- mined in C57/BL mice with subcutaneous pigmented or non-pigmented B16 melanomas. Borocaptate sodium (BSH) was used as a boron compound without melanin-seeking properties in a comparative biodistribution study in the same animal tumour models. […] BPTU was found in large concentra- tions in kidney and liver. Brain boron was approximately 10-fold lower than tumour boron. […] Owing to solubility limits, tumour boron concentrations in this mouse study were too low for effective application of BNCT. However, the high tumour-to-blood and tumour-to-normal tissues ratios indicate that, with appropriate formulation, BPTU could be a promising candidate for clinical BNCT. […] The selective accumulation of "'B-containing compounds in tumours and subsequent irradiation with low-energy (thermal) neutrons form the basis of BNCT. The short track lengths of `'B(n,a)7Li fission pro- ducts (9 and 5 iLm for a and 7Li respectively) offer partial restriction of the radiation dose to the "'B-containing cells. Additional advantages owing to the high-LET (linear energy transfer) character of the emitted radiation are higher biological efficacies compared with photons or X-rays and less effect of hypoxia or cell cycle distribution on the therapeutic effect. The relatively high resistance of melanomas for photon therapy and the presence of a bio- chemical rationale for boron targeting explain the efforts made in this area (Mishima et al., 1989; Madoc Jones et al., 1990). The often high rate of melanogenesis in melanoma cells has led to the development of several boron drugs with melanoma-seeking capacity. […]

[2] = system: non-pigmented B16.013 melanoma; assay: Tumour boron uptake and retention in subcutaneous non-pigmented B16.013 tumours; assay type: in vivo, C57/BL mice; details: for Tumour boron conc. / Tumour-to-blood ratio (boron): BSH 50 mg kg-1 boron single dose, B16.013
Description: (§2) Br. J. Cancer (1994), 69, 641 647 ? Macmillan Press Ltd., 1994~~~~~~~~~~~~~~~~~~~~~~~~~~~~~~~~~~~~~~~~~~~~~~~~~~~~~~~~~~~~~~~~~~~~~~~~~~~~~~~~~~~~~ Pharmacokinetics in melanoma-bearing- mice of 5-dihydroxyboryl- 6-propyl-2-thiouracil (BPTU), a candidate compound for boron neutron capture therapy R. Verrijkl, I.J.H. Smolders', R. Huiskamp2, P.R. Gavin3,. K.H.I. Philipp2 & A.C. Begg' 'The Netherlands Cancer Institute, Division of Experimental Therapy, Plesmanlaan 121, 1066 CX, Amsterdam, The Netherlands; 2The Netherlands Energy Research Foundation, Division of Radiobiology and Radioecology, PO Box 1, 1755 SG, Petten, The Netherlands; 3Department of Veterinary Clinical Medicine and Surgery and Washington Animal Disease and Diagnostic Laboratory, Washington State University, Pullman, Washington 99164-6610, USA. Summary Blood pharmacokinetics and tissue distribution of 5-dihydroxyboryl-6-propyl-2-thiouracil (BPTU), a boron carrier with postulated melanin-seeking properties for boron neutron capture therapy, were deter- mined in C57/BL mice with subcutaneous pigmented or non-pigmented B16 melanomas. Borocaptate sodium (BSH) was used as a boron compound without melanin-seeking properties in a comparative biodistribution study in the same animal tumour models. […] BPTU was found in large concentra- tions in kidney and liver. Brain boron was approximately 10-fold lower than tumour boron. […] Owing to solubility limits, tumour boron concentrations in this mouse study were too low for effective application of BNCT. However, the high tumour-to-blood and tumour-to-normal tissues ratios indicate that, with appropriate formulation, BPTU could be a promising candidate for clinical BNCT. […] The selective accumulation of "'B-containing compounds in tumours and subsequent irradiation with low-energy (thermal) neutrons form the basis of BNCT. The short track lengths of `'B(n,a)7Li fission pro- ducts (9 and 5 iLm for a and 7Li respectively) offer partial restriction of the radiation dose to the "'B-containing cells. Additional advantages owing to the high-LET (linear energy transfer) character of the emitted radiation are higher biological efficacies compared with photons or X-rays and less effect of hypoxia or cell cycle distribution on the therapeutic effect. The relatively high resistance of melanomas for photon therapy and the presence of a bio- chemical rationale for boron targeting explain the efforts made in this area (Mishima et al., 1989; Madoc Jones et al., 1990). The often high rate of melanogenesis in melanoma cells has led to the development of several boron drugs with melanoma-seeking capacity. The L-isomer of boronphenylalanine (BPA) is taken up by melanoma cells both in vitro and in vivo (Ichihashi et al., 1982; 1989; Coderre et al., 1987; 1990; Allen et al., 1992; Packer et al., 1992). Animal studies on BNCT efficacy and normal tissue tolerance with BPA have also been performed (Coderre et al., 1991; 1992; Hiratsuka et al., 1991). Although the uptake of BPA in melanoma cells is well accepted, incor- poration of boron into melanin might not occur, resulting in poor retention. Boronated thiouracils that enter the melanogenesis pathway at a different point from BPA have been recently synthesised, aiming at boron incorporation into the melanin for better retention (Tjarks & Gabel, 1991). […] Since the radiation dose in BNCT is mainly dependent on cellular boron levels, amelanotic tumour cell subpopulations may limit the efficacy of boron compounds that target the pigmented tumour cell fraction only. […] Begg. Received 1 September 1993; and in revised form 15 November 1993. into cell populations with different pigmentation levels in experimental tumour models, melanomas often increase in the amelanotic fraction with tumour progression and metas- tasis development in humans (Guiliano et al., 1982; Elder, 1987). It is therefore important to establish the capacity of melanoma-seeking boron drugs to target the amelanotic cells in a tumour. […]

[3] = system: melanotic B16 cells; details: cited from earlier work; for Retention in cells in vitro: after washing, ref R. Verrijk et al., 1991, unpublished data
[4] = system: pigmented B16 melanoma (B16wt); assay: Tumour boron uptake and retention in subcutaneous pigmented B16 tumours; assay type: in vivo, C57/BL mice; details: for Tumour boron conc. / Tumour-to-blood ratio (boron): BSH 50 mg kg-1 boron single dose, B16.wt
Description: as §2

[5] = system: non-pigmented B16.013 subclone; set-up: method as in R. Verrijk et al., 1991, unpublished data; details: non-pigmented B16.013 cells; ref R. Verrijk et al., 1991, unpublished data; cited from earlier work
[6] = Solubility limit in formulation for injection; assay type: physicochemical; details: limited the dose administered to mice
Description: Br. J. Cancer (1994), 69, 641 647 ? Macmillan Press Ltd., 1994~~~~~~~~~~~~~~~~~~~~~~~~~~~~~~~~~~~~~~~~~~~~~~~~~~~~~~~~~~~~~~~~~~~~~~~~~~~~~~~~~~~~~ Pharmacokinetics in melanoma-bearing- mice of 5-dihydroxyboryl- 6-propyl-2-thiouracil (BPTU), a candidate compound for boron neutron capture therapy R. Verrijkl, I.J.H. Smolders', R. Huiskamp2, P.R. Gavin3,. K.H.I. Philipp2 & A.C. Begg' 'The Netherlands Cancer Institute, Division of Experimental Therapy, Plesmanlaan 121, 1066 CX, Amsterdam, The Netherlands; 2The Netherlands Energy Research Foundation, Division of Radiobiology and Radioecology, PO Box 1, 1755 SG, Petten, The Netherlands; 3Department of Veterinary Clinical Medicine and Surgery and Washington Animal Disease and Diagnostic Laboratory, Washington State University, Pullman, Washington 99164-6610, USA. Summary Blood pharmacokinetics and tissue distribution of 5-dihydroxyboryl-6-propyl-2-thiouracil (BPTU), a boron carrier with postulated melanin-seeking properties for boron neutron capture therapy, were deter- mined in C57/BL mice with subcutaneous pigmented or non-pigmented B16 melanomas. Borocaptate sodium (BSH) was used as a boron compound without melanin-seeking properties in a comparative biodistribution study in the same animal tumour models. […] BPTU was found in large concentra- tions in kidney and liver. Brain boron was approximately 10-fold lower than tumour boron. […]

[7] = system: subcutaneous fibrosarcoma RIF-1; assay: BSH boron pharmacokinetics in blood and RIF-1 tumour tissue; assay type: in vivo, C3H/Km mice
[8] = Blood boron pharmacokinetics in B16 melanoma-bearing mice (ICP-AES, two-compartment fit); assay type: in vivo, C57/BL mice; details: for Cmax blood, maximum boron concentration in blood: calculated values, BSH 50 mg kg-1 boron i.v.
Description: as §1, with “cells.” for “cells. Additional advantages owing to the high-LET (linear energy transfer) character of the emitted radiation are higher biological efficacies compared with photons or X-rays and less effect of hypoxia or cell cycle distribution on the therapeutic effect. The relatively high resistance of melanomas for photon therapy and the presence of a bio- chemical rationale for boron targeting explain the efforts made in this area (Mishima et al., 1989; Madoc Jones et al., 1990). The often high rate of melanogenesis in melanoma cells has led to the development of several boron drugs with melanoma-seeking capacity.”

[9] = BSH 50 mg kg-1 boron i.v., 12 min after administration

Change of mean tumour boron concentration, multiple vs single BPTU administration ([4]; 4 x 3.15 vs 3.15 mg kg-1 boron, 24 h, pigmented B16): increased more than three times | Solubility [6]: insufficient solubility
Molecule: CCCc1[nH]c(=S)[nH]c(=O)c1B(O)O [BPTU, 5-dihydroxyboryl-6-propyl-2-thiouracil]
Boron in kidney and liver ([1]; BPTU single doses): found in large concentrations in kidney and liver | Tumour boron vs blood boron profile ([2]; BPTU single dose, non-pigmented tumour variant): tumour boron levels closely followed blood levels | Retention in cells in vitro ([3]; melanotic B16 cells): better retained in the cells than BPA or BSH | Retention in cells in vitro [5]: failed to be retained

Molecule: O=c1[nH]c(=S)[nH]cc1B(O)O [BTU, boronthiouracil]
Retention in cells in vitro ([3]; melanotic B16 cells): showed no retention at all in either cell line | Retention in cells in vitro [5]: showed no retention at all in either cell line

Liver boron level [1, 9]: up to 230 Agg- g | Liver boron relative to blood boron [1, 9]: 8 fold | Liver-to-kidney boron concentration ratio ([1]; BSH, during the tissue distribution phase): 2-4 | Tumour-to-blood ratios of boron ([7]; BSH 50 mg kg-1 boron, RIF-1 fibrosarcoma, 24 or 48 h): not significantly above unity | Boron tumour-to-blood ratios ([7]; BSH, at times before 24 h, tumour model not named at the place): below 1 | Mean ratio Cmax tumour/injected dose ([2]; BSH 50 mg kg-1 boron i.v., B16.013 tumour): 1.0 | Tumour boron conc. ([2]; 4 h): 10.5 g g-g' | Tumour-to-blood ratio (boron) ([2]; 4 h): 1.5 | Tumour boron conc. ([2]; 24 h): 2.2 g g-g' | Tumour-to-blood ratio (boron) ([2]; 24 h): 4.0 | Cmax tumour, maximum boron concentration in tumour ([2]; highest measured values, BSH 50 mg kg-1 boron i.v., B16.013 tumour): 49.8 11.0 g mg- | Mean ratio Cmax tumour/injected dose ([4]; BSH 50 mg kg-1 boron i.v., B16wt tumour): 0.7 | Tumour boron conc. ([4]; 4 h): 7.6 g g-g' | Tumour-to-blood ratio (boron) ([4]; 4 h): 1.1 | Tumour boron conc. ([4]; 24 h): 2.3 g g-g' | Tumour-to-blood ratio (boron) ([4]; 24 h): 3.4 | Cmax tumour, maximum boron concentration in tumour ([4]; highest measured values, BSH 50 mg kg-1 boron i.v., B16wt tumour): 32.8 3.52 g mg-
Molecule: Borocaptate sodium [BSH]
Retention of boron in tumour ([2]; BSH 50 mg kg-1 boron, 24 and 48 h, non-pigmented B16): retained in B16 tumours at 24 and 48 h, irrespective of pigmentation degree | Levels of boron in cells vs culture medium ([3]; melanotic B16 cells incubated with BSH, ref Verrijk et al., 1992): higher than in the culture medium only after 16 h incubation | Cellular boron retention after washing ([3]; melanotic B16 cells, washing with boron-free culture medium for 4 h, ref Verrijk et al., 1992): Partial cel- lular boron retention | Retention of boron in tumour ([4]; BSH 50 mg kg-1 boron, 24 and 48 h, pigmented B16): retained in B16 tumours at 24 and 48 h, irrespective of pigmentation degree | Cmax values relative to BPTU ([8]; BSH 50 vs BPTU 3.15 mg kg-1 boron): approximately 10 fold | Cmax blood, maximum boron concentration in blood ([8]; B16wt-bearing mice): 59.4 ± 10.6 g mli | Cmax blood, maximum boron concentration in blood ([8]; B16.013-bearing mice): 54.1 ± 14.6 g mli
